In EP0451422A1, “Pharmaceutically active fluoromethyltyrosine compounds” (MERRELL DOW PHARMACEUTICALS INC., priority 1990, dated 1991):

Biological target: T1, tyrosine hydroxylase (Mus musculus, UniProt P24529)
T1 construct: from tissue; host or cells: living mice
Experiment: In vivo inhibition of tyrosine hydroxylase (cortical norepinephrine levels in mice, HPLC with electrochemical detection)
Conditions: mice injected intraperitoneally; cerebral cortices removed six hours later; norepinephrine in tissue; dose not given; control 198.2 +/- 18.4 ng/g
Method: The tyrosine hydroxylase inhibitory properties of the compounds of this invention can readily be determined by standard and well known procedures. For example, determination of tyrosine hydroxylase inhibition is exemplified by a procedure wherein mice are injected intraperitoneally with a test compound, and six hours later the mice are sacrificed, the cerebral cortices removed and frozen on dry ice. The levels of norepinephrine in the tissue are measured by HPLC with electrochemical detection, according to the process of Dudley, et al, J. Pharmacol. Exp. Ther., 217, 834-840 (1981). Reduction in cortical norepinephrine levels indicates effective, in vivo inhibition of tyrosine hydroxylase. The following Table I illustrates the decreased levels of norepinephrine after treatment with a compound of this invention (2-fluoromethyl tyrosine) in relation to levels of norepinephrine present after treatment with a known inhibitor (alpha-methyl-p-tyrosine), and as compared to the amount of norepinephrine produced without treatment with a test compound (control).

T1 sequence (P24529 whole entry): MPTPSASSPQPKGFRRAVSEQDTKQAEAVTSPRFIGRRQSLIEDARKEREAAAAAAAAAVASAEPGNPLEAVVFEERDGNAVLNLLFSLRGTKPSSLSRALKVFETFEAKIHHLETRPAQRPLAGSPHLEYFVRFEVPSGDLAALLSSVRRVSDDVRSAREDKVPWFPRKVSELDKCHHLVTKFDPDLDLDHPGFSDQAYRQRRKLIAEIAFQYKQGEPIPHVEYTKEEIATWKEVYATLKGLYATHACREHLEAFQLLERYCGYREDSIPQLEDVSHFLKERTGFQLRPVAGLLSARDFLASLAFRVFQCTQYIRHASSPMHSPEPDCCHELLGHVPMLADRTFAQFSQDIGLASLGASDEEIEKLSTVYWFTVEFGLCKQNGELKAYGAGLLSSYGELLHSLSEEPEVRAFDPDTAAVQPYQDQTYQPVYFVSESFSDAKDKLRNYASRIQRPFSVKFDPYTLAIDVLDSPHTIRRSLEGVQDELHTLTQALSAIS

NOREPINEPHRINE | SMILES
124.9 ± 11.4 ng/g | N[C@@H](Cc1ccc(O)cc1CF)C(=O)O [2-fluoromethyl-tyrosine, 2-Fluoromethyltyrosine]
115.7 ± 18.6 ng/g | CC(N)(Cc1ccc(O)cc1)C(=O)O (stereo not drawn) [α-methyl-p-tyrosine]
